Results as given in PMC2231820 (The Journal of General Physiology, 2000).
Changes are numbered by the printed parent chain. Like-named read-outs stand apart in the source and are kept apart here. Each block holds one molecule with its values, some of them ahead of it.

Tests used:
[1] = molecular target: T1, mouse olfactory (Molf) CNG channel, α homomultimer (Mus musculus, UniProt Q62398, M2V); type: cell-based
T1 sequence (Q62398 1-664 M2V): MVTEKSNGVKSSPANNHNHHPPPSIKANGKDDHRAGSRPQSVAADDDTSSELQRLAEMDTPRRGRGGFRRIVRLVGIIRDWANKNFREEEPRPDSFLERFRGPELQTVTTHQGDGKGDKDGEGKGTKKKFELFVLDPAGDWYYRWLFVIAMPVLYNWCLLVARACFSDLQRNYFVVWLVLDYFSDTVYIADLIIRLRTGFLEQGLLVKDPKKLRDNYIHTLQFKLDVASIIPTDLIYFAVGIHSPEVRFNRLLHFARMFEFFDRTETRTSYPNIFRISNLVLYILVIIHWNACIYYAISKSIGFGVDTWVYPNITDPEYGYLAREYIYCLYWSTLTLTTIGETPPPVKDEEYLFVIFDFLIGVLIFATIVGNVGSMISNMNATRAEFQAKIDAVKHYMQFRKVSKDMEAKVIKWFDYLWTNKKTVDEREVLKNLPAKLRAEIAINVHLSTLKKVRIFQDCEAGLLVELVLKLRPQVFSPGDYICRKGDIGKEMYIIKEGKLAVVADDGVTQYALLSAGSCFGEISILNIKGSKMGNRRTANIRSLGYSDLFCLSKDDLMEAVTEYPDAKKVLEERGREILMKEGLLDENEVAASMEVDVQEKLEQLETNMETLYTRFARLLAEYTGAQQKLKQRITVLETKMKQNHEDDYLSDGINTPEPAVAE

Rolf G204W CNG channel = molecular target: T2, Rolf G204W CNG channel (Rattus norvegicus, UniProt Q00195, G204W); type: cell-based
T2 sequence (Q00195 1-664 G204W): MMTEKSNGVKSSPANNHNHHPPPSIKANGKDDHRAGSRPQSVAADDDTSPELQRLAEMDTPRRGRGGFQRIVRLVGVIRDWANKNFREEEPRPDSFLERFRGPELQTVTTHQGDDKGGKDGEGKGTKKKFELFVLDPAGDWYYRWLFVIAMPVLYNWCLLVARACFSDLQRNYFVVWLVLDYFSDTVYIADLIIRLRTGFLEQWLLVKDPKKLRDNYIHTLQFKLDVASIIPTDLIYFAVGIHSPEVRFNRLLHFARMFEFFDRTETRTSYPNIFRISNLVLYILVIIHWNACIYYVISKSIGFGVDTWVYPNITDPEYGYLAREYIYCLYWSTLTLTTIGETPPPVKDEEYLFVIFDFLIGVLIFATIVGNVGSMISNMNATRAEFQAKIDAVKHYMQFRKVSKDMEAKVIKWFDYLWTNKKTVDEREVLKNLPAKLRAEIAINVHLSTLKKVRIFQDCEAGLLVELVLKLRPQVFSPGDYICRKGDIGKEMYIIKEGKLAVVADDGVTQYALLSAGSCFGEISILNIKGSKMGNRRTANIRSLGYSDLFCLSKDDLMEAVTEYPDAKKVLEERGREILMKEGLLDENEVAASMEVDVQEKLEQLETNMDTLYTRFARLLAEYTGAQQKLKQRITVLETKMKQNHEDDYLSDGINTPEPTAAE

[2] = molecular target: T3, bovine rod (Brod) CNG channel, α homomultimer (Bos taurus, UniProt Q00194); settings: saturating 2 mM cGMP, ref Crary et al. 2000; cited from earlier work
T3 sequence (Q00194 1-690): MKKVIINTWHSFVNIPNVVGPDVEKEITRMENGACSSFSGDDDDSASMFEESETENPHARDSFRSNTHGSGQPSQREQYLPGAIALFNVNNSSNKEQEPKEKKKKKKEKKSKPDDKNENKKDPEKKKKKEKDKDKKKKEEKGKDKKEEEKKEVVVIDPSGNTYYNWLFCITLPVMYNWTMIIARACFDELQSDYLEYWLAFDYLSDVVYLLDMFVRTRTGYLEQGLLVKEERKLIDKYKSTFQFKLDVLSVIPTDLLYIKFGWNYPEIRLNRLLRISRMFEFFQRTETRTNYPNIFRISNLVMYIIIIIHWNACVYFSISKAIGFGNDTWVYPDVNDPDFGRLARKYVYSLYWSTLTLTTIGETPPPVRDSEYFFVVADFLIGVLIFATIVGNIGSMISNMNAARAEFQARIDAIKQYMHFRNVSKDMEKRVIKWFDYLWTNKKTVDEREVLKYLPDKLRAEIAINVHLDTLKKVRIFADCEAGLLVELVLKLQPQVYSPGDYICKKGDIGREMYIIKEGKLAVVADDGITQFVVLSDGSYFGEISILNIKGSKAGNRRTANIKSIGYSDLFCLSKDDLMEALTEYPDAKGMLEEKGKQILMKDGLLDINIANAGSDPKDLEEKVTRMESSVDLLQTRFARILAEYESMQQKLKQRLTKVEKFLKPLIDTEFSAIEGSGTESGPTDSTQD

Rolf G204D CNG channel = molecular target: T4, Rolf G204D CNG channel (Rattus norvegicus, UniProt Q00195, G204D); type: cell-based
T4 sequence (Q00195 1-664 G204D): T2 sequence (Q00195 1-664 G204W) with W204D

[3] = read-out: Percent inhibition by tetracaine

inhibition of cGMP-activated current by DAG (in words) ([1]; Molf, 12 μM DAG, saturating cGMP): only partial inhibition
DAG maximal percent inhibition (INmax) ([1]; Molf, saturating 100 μM cGMP): 17%
Hill coefficient n of DAG inhibition ([1]; Molf, saturating 100 μM cGMP): 0.8
DAG maximal percent inhibition (INmax) (Rolf G204W CNG channel; Rolf G204W, 2 mM cGMP): 100%
Hill coefficient n of DAG inhibition (Rolf G204W CNG channel; Rolf G204W, 2 mM cGMP): 3.2
Molecule: diacylglycerol [DAG]
DAG maximal percent inhibition (INmax) [2]: 100%
Hill coefficient n of DAG inhibition [2]: 1.7

I/Imax of cGMP-activated current ([1]; Molf, 1 μM cGMP, +100 mV): 0.15
Hill coefficient n of cGMP activation (Rolf G204W CNG channel; Rolf G204W, averaged six patches, +100 mV): 1.7
Hill coefficient n of cGMP activation (Rolf G204W CNG channel; Rolf G204W, averaged six patches, −100 mV): 1.7
Hill coefficient n of cGMP activation (Rolf G204W CNG channel; Rolf G204W, single patch, +100 mV): 2.0
Hill coefficient n of cGMP activation (Rolf G204W CNG channel; Rolf G204W, single patch, −100 mV): 2.0
EC50 (Rolf G204W CNG channel; read-out: cGMP K1/2 (half-maximal activation), Rolf G204W, +100 mV, averaged data from six patches): 14 µM
EC50 (Rolf G204W CNG channel; read-out: cGMP K1/2, Rolf G204W, single patch, +100 mV): 14 µM
EC50 (Rolf G204W CNG channel; read-out: cGMP K1/2, Rolf G204W, single patch, −100 mV): 18 µM
Molecule: Nc1nc2c(ncn2[C@@H]2O[C@@H]3COP(=O)(O)O[C@H]3[C@H]2O)c(=O)[nH]1 [cGMP]

inhibition at 40 µM [1, 3]: 18.8%
IC50 (Rolf G204W CNG channel): 2.2 µM
inhibition at 40 µM (Rolf G204W CNG channel; [3]): 100%
IC50 (Rolf G204D CNG channel): 10.8 µM
Molecule: CCCCNc1ccc(C(=O)OCCN(C)C)cc1 [Tetracaine, tetracaine]
